Usually pEC50 stands for −log10 of the EC50, conventionally taken in molar units.

Each structure is given as a SMILES string. pEC50: −log10 of the molar value.

Sequence of human activated kallikrein enzyme (P03952 391-638): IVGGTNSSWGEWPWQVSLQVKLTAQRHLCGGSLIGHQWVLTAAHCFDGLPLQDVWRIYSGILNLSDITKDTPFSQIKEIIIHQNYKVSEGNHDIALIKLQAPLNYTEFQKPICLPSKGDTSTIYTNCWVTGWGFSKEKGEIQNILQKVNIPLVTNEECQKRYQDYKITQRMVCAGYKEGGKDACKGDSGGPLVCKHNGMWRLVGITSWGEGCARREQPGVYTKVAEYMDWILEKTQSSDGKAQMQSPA
Sequence of human activated kallikrein enzyme (P03952 20-390 partner): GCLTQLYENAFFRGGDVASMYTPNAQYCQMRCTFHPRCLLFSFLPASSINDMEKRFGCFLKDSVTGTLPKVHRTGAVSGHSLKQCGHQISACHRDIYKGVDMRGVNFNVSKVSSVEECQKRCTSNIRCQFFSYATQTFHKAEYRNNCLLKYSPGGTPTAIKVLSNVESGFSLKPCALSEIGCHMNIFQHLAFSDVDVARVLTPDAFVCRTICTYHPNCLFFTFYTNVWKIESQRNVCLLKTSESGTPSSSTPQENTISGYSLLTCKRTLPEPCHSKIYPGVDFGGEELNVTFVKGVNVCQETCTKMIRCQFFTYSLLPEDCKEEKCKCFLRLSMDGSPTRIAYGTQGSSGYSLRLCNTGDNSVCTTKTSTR

This test deals with human activated kallikrein enzyme (Homo sapiens (Human), UniProt P03952). Kind of test: Plasma kallikrein inhibition assay with fluorogenic peptide substrate, 500 pM activated kallikrein format. The format is biochemical. The following applies: 500 pM activated kallikrein; 300 uM Pro-Phe-Arg-7-amido-4-methylcoumarin substrate; 30 min preincubation, 10 min reaction at RT; read-out: Primary Dose Response Assay: Average EC50. On the procedure:
Example compounds were evaluated for inhibition of the human activated kallikrein enzyme in two formats of an assay employing a fluorogenic peptide substrate. In one assay format, the concentrations of reagents were as follows: 20 mM Tris pH 7.5, 1 mM EDTA, 150 mM sodium chloride, 0.1% PEG-400, 0.1% Triton X-100, […], 300 uM Pro-Phe-Arg-7-amido-4-methylcoumarin substrate. Prior to reaction initiation with substrate, enzyme and inhibitors were preincubated for 30 min at RT. After initiation with substrate, reactions were incubated for 10 min at RT and fluorescence emission at 460 nm from 380 nm excitation measured with a microplate reader. In another assay format, the concentrations of reagents were as follows: 20 mM Tris pH 7.5, 1 mM EDTA, 150 mM sodium chloride, 0.1% PEG-400, 0.1% Triton X-100, 5 pM activated kallikrein enzyme, 300 uM Pro-Phe-Arg-7-amido-4-methylcoumarin substrate. Prior to reaction initiation with substrate, enzyme and inhibitors were preincubated for 30 min at RT. After initiation with substrate, reactions were incubated for 18 h at RT and fluorescence emission at 460 nm from 380 nm excitation measured with a microplate reader.
Table II provides the results of the assay in the format with 500 pM activated kallikrein assay.
Table III provides comparative plasma kallikrein inhibition potency in the assay format with 500 pM activated kallikrein assay (described in detail in the preceding example).
For `COc1ccc([S+](C)[O-])c(CNC(=O)c2cn(Cc3cn4cc(C5CC5)ccc4n3)nn2)c1F` (centres unmarked) [Example I-58, 1-((6-cyclopropylimidazo[1,2-a]pyridin-2-yl)methyl)-N-(2-fluoro-3-methoxy-6-(methylsulfinyl)benzyl)-1H-1,2,3-triazole-4-carboxamide], the negative-log EC50 (pEC50) was 5.15 to 5.70.

`COc1ccnc(CNC(=O)c2cn3c(n2)CCC3c2cn3cc(C4CC4)ccc3n2)c1F` (centres unmarked) [Example I-5, 5-(6-cyclopropylimidazo[1,2-a]pyridin-2-yl)-N-((3-fluoro-4-methoxypyridin-2-yl)methyl)-6,7-dihydro-5H-pyrrolo[1,2-a]imidazole-2-carboxamide]: the pEC50 was 7.00 to 8.00.

In the case of `COc1ccc(S(=O)(=O)N2CCOCC2)c(CNC(=O)c2cn(Cc3cn4cc(C5CC5)ccc4n3)nn2)c1F` [Example I-48, 1-((6-cyclopropylimidazo[1,2-a]pyridin-2-yl)methyl)-N-(2-fluoro-3-methoxy-6-(morpholinosulfonyl)benzyl)-1H-1,2,3-triazole-4-carboxamide], the negative logarithm of the EC50 (pEC50) was 8.00 to 9.00.

As for `COc1ccc(-n2cnnn2)c(CNC(=O)c2cn(Cc3cn4cc(C5CC5)cc(C(F)(F)F)c4n3)nn2)c1F` [Example I-93, 1-((6-cyclopropyl-8-(trifluoromethyl)imidazo[1,2-a]pyridin-2-yl)methyl)-N-(2-fluoro-3-methoxy-6-(1H-tetrazol-1-yl)benzyl)-1H-1,2,3-triazole-4-carboxamide], the negative logarithm of the EC50 (pEC50) is not below 9.00.

For the compound `Nc1nnc(CNC(=O)c2cn(Cc3cn4cc(C5CC5)ccc4n3)nn2)[nH]1` [Example I-21, N-((5-amino-4H-1,2,4-triazol-3-yl)methyl)-1-((6-cyclopropylimidazo[1,2-a]pyridin-2-yl)methyl)-1H-1,2,3-triazole-4-carboxamide], the pEC50 is 5.15 to 5.70.

On to `O=C(NCc1c(-n2cnnn2)ccc(OC(F)(F)F)c1F)c1cn(Cc2cn3cc(C4CC4)ccc3n2)nn1` [Example I-98, 1-((6-cyclopropylimidazo[1,2-a]pyridin-2-yl)methyl)-N-(2-fluoro-6-(1H-tetrazol-1-yl)-3-(trifluoromethoxy)benzyl)-1H-1,2,3-triazole-4-carboxamide], for which the pEC50 was 5.70 to 7.00.

Turning to `COc1ccc(C#N)c(CNC(=O)c2cn(Cc3cn4cc(C5CC5)cc(CCC(=O)O)c4n3)nn2)c1F` [Example I-107, 3-(2-((4-((6-cyano-2-fluor-3-methoxybenzyl)carbamoyl)-1H-1,2,3-triazol-1-yl)methyl)-6-cyclopropylimidazo[1,2-a]pyridin-8-yl)propanoic Acid], the pEC50 was not below 9.00.

As for `Cc1[nH]nc2c1CC[C@H]2NC(=O)c1cnn(Cc2cn3cc(C4CC4)ccc3n2)c1` [Example I-155], the pEC50 is 8.00 to 9.00.

As to `O=C(NCc1c(-n2cnnn2)ccc(C2CC2)c1F)c1cn(Cc2cn3cc(C4CC4)ccc3n2)nn1` [Example I-78, N-(3-cyclopropyl-2-fluoro-6-(1H-tetrazol-1-yl)benzyl)-1-((6-cyclopropylimidazo[1,2-a]pyridin-2-yl)methyl)-1H-1,2,3-triazole-4-carboxamide], the pEC50 was 7.00 to 8.00.

On to `COc1ccc(-n2ccnc2)c(CNC(=O)c2cn(Cc3cn4cc(C5CC5)ccc4n3)nn2)c1F` [Example I-104, 1-((6-cyclopropylimidazo[1,2-a]pyridin-2-yl)methyl)-N-(2-fluoro-6-(1H-imidazol-1-yl)-3-methoxybenzyl)-1H-1,2,3-triazole-4-carboxamide], for which the negative logarithm of the EC50 (pEC50) is 8.00 to 9.00.

As for `O=C(NCc1ncc2c(F)cc(Cl)cn12)c1cnn(Cc2cn3cc(C4CC4)ccc3n2)c1` [Example I-137, N-((6-chloro-8-fluoroimidazo[1,5-a]pyridin-3-yl)methyl)-1-((6-cyclopropylimidazo[1,2-a]pyridin-2-yl)methyl)-1H-pyrazole-4-carboxamide], the pEC50 is 5.70 to 7.00.

Take `CC(NS(=O)(=O)c1cnn(Cc2cn3cc(C4CC4)ccc3n2)c1)c1cccc(Cl)c1` (centres unmarked) [Example I-38, N-(1-(3-chlorophenyl)ethyl)-1-((6-cyclopropylimidazo[1,2-a]pyridin-2-yl)methyl)-1H-pyrazole-4-sulfonamide]: the negative-log EC50 (pEC50) was less than 5.15.

With `COc1ccc(-n2cnnn2)c(CNC(=O)c2cn(Cc3cn4cc(C5CC5)cc(CC5COC5)c4n3)nn2)c1F` [Example I-68, 1-((6-cyclopropyl-8-(oxetan-3-ylmethyl)imidazo[1,2-a]pyridin-2-yl)methyl)-N-(2-fluoro-3-methoxy-6-(1H-tetrazol-1-yl)benzyl)-1H-1,2,3-triazole-4-carboxamide], the pEC50 is not below 9.00.

For `COc1ccc(-n2cnnc2)c(CNC(=O)c2cn(Cc3cn4cc(C5CC5)ccc4n3)nn2)c1F` [Example I-96, 1-((6-cyclopropylimidazo[1,2-a]pyridin-2-yl)methyl)-N-(2-fluoro-3-methoxy-6-(4H-1,2,4-triazol-4-yl)benzyl)-1H-1,2,3-triazole-4-carboxamide], the pEC50 is 8.00 to 9.00.

Turning to `COc1ccc(-n2cc(C)c(C)n2)c(CNC(=O)c2cn(Cc3cn4cc(C5CC5)ccc4n3)nn2)c1F` [Example I-73, 1-((6-cyclopropylimidazo[1,2-a]pyridin-2-yl)methyl)-N-(6-(3,4-dimethyl-1H-pyrazol-1-yl)-2-fluoro-3-methoxybenzyl)-1H-1,2,3-triazole-4-carboxamide], the negative-log EC50 (pEC50) is 7.00 to 8.00.

`Cc1c(Cl)ccc(-n2cnnn2)c1CNC(=O)c1cn(Cc2cn3cc(C4CC4)ccc3n2)nn1` [Example I-80, N-(3-chloro-2-methyl-6-(1H-tetrazol-1-yl)benzyl)-1-((6-cyclopropylimidazo[1,2-a]pyridin-2-yl)methyl)-1H-1,2,3-triazole-4-carboxamide]: the pEC50 is 5.70 to 7.00.

On to `Cc1[nH]nc2c1CC[C@H]2NC(=O)c1cn(Cc2cn3cc(C4CC4)ccc3n2)nn1` [Example I-154], for which the negative-log EC50 (pEC50) was 8.00 to 9.00.

On to `Nc1ncc(CNC(=O)c2cn(Cc3cn4cc(C5CC5)ccc4n3)nn2)s1` [Example I-18, N-((2-aminothiazol-5-yl)methyl)-1-((6-cyclopropylimidazo[1,2-a]pyridin-2-yl)methyl)-1H-1,2,3-triazole-4-carboxamide], for which the negative-log EC50 (pEC50) was 5.70 to 7.00.

Consider `COc1ccc(-n2cnnn2)c(CNCc2cn(Cc3cn4cc(C5CC5)ccc4n3)nn2)c1F` [Example I-29, 1-(1-((6-cyclopropylimidazo[1,2-a]pyridin-2-yl)methyl)-1H-1,2,3-triazol-4-yl)-N-(2-fluoro-3-methoxy-6-(1H-tetrazol-1-yl)benzyl)methanamine], for which the pEC50 was 8.00 to 9.00.

In the case of `COc1ccc(-n2cnnn2)c(CNC(=O)c2cn(Cc3cn4cc(C5CC5)cc(COCCN)c4n3)nn2)c1F` [Example I-17, 1-((8-((2-aminoethoxy)methyl)-6-cyclopropylimidazo[1,2-a]pyridin-2-yl)methyl)-N-(2-fluoro-3-methoxy-6-(1H-tetrazol-1-yl)benzyl)-1H-1,2,3-triazole-4-carboxamide], the pEC50 is not below 9.00.

For the compound `Cc1cc(C(=N)N)cc(C)c1CNS(=O)(=O)c1cnn(Cc2cn3cc(C4CC4)ccc3n2)c1` [Example I-39, 4-(((1-((6-cyclopropylimidazo[1,2-a]pyridin-2-yl)methyl)-1H-pyrazole)-4-sulfonamido)methyl)-3,5-dimethylbenzimidamide], the pEC50 is 7.00 to 8.00.

Consider `O=C(O)CCc1cc(C2CC2)cn2cc(Cn3cc(C(=O)NCc4c(-n5cnnn5)ccc(Cl)c4F)nn3)nc12` [Example I-109, 3-(2-((4-((3-choro-2-fluoro-6-(1H-tetrazol-1-yl)benzyl)carbamoyl)-1H-1,2,3-triazol-1-yl)methyl)-6-cyclopropylimidazo[1,2-a]pyridin-8-yl)propanoic Acid], for which the negative-log EC50 (pEC50) was not below 9.00.

`O=C(NC1CCc2c(Cl)ccn3cnc1c23)c1cn(Cc2cn3cc(C4CC4)ccc3n2)nn1` (centres unmarked) [Example I-135, N-(6-chloro-8,9-dihydro-7H-imidazo[4,5,1-ij]quinolin-9-yl)-1-((6-cyclopropylimidazo[1,2-a]pyridin-2-yl)methyl)-1H-1,2,3-triazole-4-carboxamide]: the negative-log EC50 (pEC50) was 7.00 to 8.00.

Regarding `Nc1nccc2c1CCC2NC(=O)c1cn(Cc2cn3cc(C4CC4)ccc3n2)nn1` (centres unmarked) [Example I-23, N-(1-amino-6,7-dihydro-5H-cyclopenta[c]pyridin-5-yl)-1-((6-cyclopropylimidazo[1,2-a]pyridin-2-yl)methyl)-1H-1,2,3-triazole-4-carboxamide], the pEC50 was not below 9.00.

Regarding `COc1ccc(-n2cnnn2)c(CNC(=O)c2nnn(Cc3cn4cc(C5CC5)cc(F)c4n3)n2)c1F` [Example I-69, 2-((6-cyclopropyl-8-fluoroimidazo[1,2-a]pyridin-2-yl)methyl)-N-(2-fluoro-3-methoxy-6-(1H-tetrazol-1-yl)benzyl)-2H-tetrazole-5-carboxamide], the negative logarithm of the EC50 (pEC50) is not below 9.00.

As for `COc1ccc(-n2cnnn2)c(CNC(=O)c2cn3c(n2)OCC3c2cn3cc(C4CC4)ccc3n2)c1F` (centres unmarked) [Example I-9, 3-(6-cyclopropylimidazo[1,2-a]pyridin-2-yl)-N-(2-fluoro-3-methoxy-6-(1H-tetrazol-1-yl)benzyl)-2,3-dihydroimidazo[2,1-b]oxazole-6-carboxamide], the pEC50 was 7.00 to 8.00.

Values taken from US11787796B2, “Plasma Kallikrein inhibitors and uses thereof” (Takeda Pharmaceutical Company Limited, priority 2019, dated 2023).
